Laboratory results taken from the supplement of paper PMC10883282.

How the values were obtained:
Assay in all cases: relative viability vs DMSO control (72 h) (fraction); higher = more viable cells
SW872 = tested on: SW872
Summary of the method: (§1)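 Serially diluted compound, 2.5 µl from source plates spanning 10 mM to 0.0002 mM, was added 24 h after sarcoma cell lines were seeded in 384-well plates at densities targeting 80–90% confluence. Plates then sat 72 h at 37 °C, 5% CO2, with 0.1% DMSO vehicle and a 5 µM positive control. Relative viability came from ATPLite as percent growth, averaged over up to triplicate wells, and was rescaled with 1 as full and 0 as none.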

A204 = tested on: A204
Summary of the method: as §1

SYO-1 = tested on: SYO-1
Summary of the method: as §1

SK-ES-1 = tested on: SK-ES-1
Summary of the method: as §1

SW982 = tested on: SW982
Summary of the method: as §1

HS729 = tested on: HS729
Summary of the method: as §1

C=CC(=O)Nc1cccc(Nc2nc(Nc3ccc(N4CCN(C(C)=O)CC4)cc3OC)ncc2C(F)(F)F)c1 [Rociletinib]
relative viability
Details	A204	HS729	SK-ES-1	SW872	SW982	SYO-1
0.00017 µM	1.06	1.01	0.973	1.1	1.01	0.99
0.00051 µM	1.08	0.925	1.02	1.08	1.05	0.983
0.00152 µM	1.13	0.9024	1.03	1.07	1.08	0.949
0.00457 µM	1.1	0.9205	1.06	1.07	1.07	0.93
0.01372 µM	1.12	0.902	1	1.05	1.05	0.893
0.04115 µM	1.04	0.924	1.03	1.048	1.04	0.903
0.1235 µM	1.11	0.89	1.02	1.04	1.04	0.872
0.3704 µM	1.08	0.812	0.943	1.01	1.05	0.867
1.111 µM	1.03	0.697	0.658	0.89	0.911	0.749
3.333 µM	0.589	0.573	0.232	0.713	0.6095	0.459
10 µM	0.302	0.343	0.0621	0.475	0.265	0.118
